According to the supplement of paper PMC10307832:

What was measured:
Assay in all cases: relative viability (nuclei count vs DMSO), 5 days (fraction); higher = more cells survive
[1] = compound: CN[C@@H]1C[C@H]2O[C@@](C)([C@@H]1OC)n1c3ccccc3c3c4c(c5c6ccccc6n2c5c31)C(=O)NC4 [Staurosporine] + Nc1nc2[nH]cc(CCc3ccc(C(=O)N[C@@H](CCC(=O)O)C(=O)O)cc3)c2c(=O)[nH]1 [Pemetrexed] (partner 0.2 µM)
How it was run: (§1)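 Lung cancer cell lines, seeded in 1536-well plates, were treated the following day by pin tool with a single drug or with five library-drug doses (not always all listed) in √10 steps on top of a fixed anchor-drug dose. Cells were fixed and nuclei stained in one step after 5 days, and nuclei were counted. Relative viability is the nuclei count for treated wells divided by that for vehicle wells, reported as medians of duplicate plates.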

[2] = compound: CN[C@@H]1C[C@H]2O[C@@](C)([C@@H]1OC)n1c3ccccc3c3c4c(c5c6ccccc6n2c5c31)C(=O)NC4 [Staurosporine] + CC(=O)c1c(C)c2cnc(Nc3ccc(N4CCNCC4)cn3)nc2n(C2CCCC2)c1=O [Palbociclib] (partner 0.5 µM)
How it was run: as §1

[3] = compound: CC1=C(CC(=O)O)c2cc(F)ccc2/C1=C\c1ccc([S+](C)[O-])cc1 [Sulindac] + Cc1nc(Nc2ncc(C(=O)Nc3c(C)cccc3Cl)s2)cc(N2CCN(CCO)CC2)n1 [Dasatinib] (partner 0.075 µM)
How it was run: as §1

[4] = compound: CN[C@@H]1C[C@H]2O[C@@](C)([C@@H]1OC)n1c3ccccc3c3c4c(c5c6ccccc6n2c5c31)C(=O)NC4 [Staurosporine] + CC1(C)CCC(c2ccc(Cl)cc2)=C(CN2CCN(c3ccc(C(=O)NS(=O)(=O)c4ccc(N[C@H](CCN5CCOCC5)CSc5ccccc5)c(S(=O)(=O)C(F)(F)F)c4)cc3)CC2)C1 [Navitoclax] (partner 0.5 µM)
How it was run: as §1

Row | Cell Line | relative viability ([1]; first compound 0.005 µM) | relative viability ([1]; first compound 0.05 µM) | relative viability ([1]; first compound 0.1581 µM) | relative viability ([1]; first compound 0.5 µM) | relative viability ([2]; first compound 0.005 µM) | relative viability ([2]; first compound 0.05 µM) | relative viability ([2]; first compound 0.1581 µM) | relative viability ([2]; first compound 0.5 µM) | relative viability ([3]; first compound 0.08 µM) | relative viability ([3]; first compound 0.253 µM) | relative viability ([3]; first compound 0.8 µM) | relative viability ([3]; first compound 2.53 µM) | relative viability ([3]; first compound 8 µM) | relative viability ([4]; first compound 0.005 µM) | relative viability ([4]; first compound 0.05 µM) | relative viability ([4]; first compound 0.1581 µM) | relative viability ([4]; first compound 0.5 µM) | relative viability ([1]; first compound 0.01581 µM) | relative viability ([2]; first compound 0.01581 µM) | relative viability ([4]; first compound 0.01581 µM)
1 | HCC-366 | 0.133 | 0.0702 | 0.0274 | 0.0293 | 0.297 | 0.113 | 0.0357 | 0.0204 | 0.715 | 0.699 | 0.578 | 0.587 | 0.622 | 1.03 | 0.5 | 0.0585 | 0.0142 |  |  | 
2 | HCC-827 | 0.266 | 0.246 | 0.171 | 0.154 | 0.59 | 0.299 | 0.226 | 0.225 | 0.348 | 0.412 | 0.251 | 0.319 | 0.338 | 1.06 | 0.768 | 0.725 | 0.488 | 0.278 | 0.401 | 
3 | HOP-62 | 0.267 | 0.134 | 0.113 | 0.0837 | 0.334 | 0.116 | 0.106 | 0.0933 | 0.696 | 0.652 |  | 0.718 | 0.646 | 0.957 | 0.152 | 0.121 | 0.104 | 0.133 | 0.194 | 0.528
4 | IA-LM |  |  |  |  |  |  |  |  |  |  |  |  |  | 0.242 | 0.257 | 0.0433 | 0.0163 |  |  | 
5 | LC-2-ad | 0.277 | 0.209 | 0.102 | 0.0993 | 0.537 | 0.279 | 0.168 | 0.109 | 0.584 | 0.718 | 0.337 | 0.418 | 0.839 | 0.473 | 0.172 | 0.0798 | 0.0689 | 0.21 | 0.328 | 0.202
6 | LCLC-97TM1 | 0.185 | 0.186 | 0.149 | 0.117 | 0.238 | 0.133 | 0.141 | 0.17 | 0.996 | 0.951 | 0.637 | 0.711 | 0.998 | 0.732 | 0.286 | 0.31 | 0.223 | 0.111 | 0.127 | 0.283
7 | LCLC-103H | 0.405 | 0.336 | 0.247 | 0.213 | 0.507 | 0.393 | 0.29 | 0.253 | 0.5 | 0.477 | 0.376 | 0.458 | 0.508 |  |  |  |  | 0.238 | 0.43 | 
8 | LK-2 | 0.331 | 0.269 | 0.0688 | 0.0539 | 0.798 | 0.49 | 0.426 | 0.287 | 0.325 | 0.215 |  |  | 0.313 | 0.965 | 0.456 | 0.109 | 0.0967 | 0.255 | 0.555 | 0.54
9 | LOU-NH91 | 0.339 | 0.336 | 0.255 | 0.274 | 0.535 | 0.475 | 0.314 | 0.28 | 0.65 | 0.53 | 0.481 | 0.54 | 0.573 | 0.725 | 0.367 | 0.269 | 0.249 | 0.304 | 0.446 | 0.455
10 | NCI-H358 | 0.165 | 0.102 | 0.102 | 0.0764 | 0.107 | 0.102 | 0.0861 | 0.0814 | 0.125 | 0.128 | 0.191 | 0.155 | 0.19 |  |  |  |  | 0.158 | 0.081 | 
11 | NCI-H522 | 1.08 | 0.847 | 0.742 | 0.579 | 1.19 |  | 0.638 | 0.502 | 0.841 | 0.962 | 0.891 | 0.917 | 0.908 |  |  |  |  | 0.7 | 0.877 | 
12 | NCI-H596 | 0.485 | 0.297 | 0.27 | 0.148 |  |  |  |  | 0.563 | 0.56 | 0.6 | 0.666 | 0.641 | 1.11 | 0.322 | 0.179 | 0.0954 | 0.265 |  | 0.665
13 | NCI-H650 | 0.64 | 0.235 | 0.23 | 0.228 | 0.262 | 0.224 | 0.234 | 0.199 | 0.52 | 0.462 | 0.469 | 0.466 | 0.47 |  |  |  |  | 0.257 | 0.208 | 
14 | NCI-H661 | 0.901 | 0.542 | 0.353 | 0.186 | 0.418 | 0.329 | 0.26 | 0.192 | 0.966 | 0.842 | 0.759 | 0.807 | 1.08 |  |  |  |  | 0.667 | 0.337 | 
15 | NCI-H727 |  |  |  |  | 0.649 | 0.5 | 0.447 | 0.443 | 0.345 | 0.333 |  | 0.394 | 0.412 | 0.285 | 0.265 | 0.193 | 0.18 |  | 0.557 | 0.251
16 | NCI-H1299 |  |  |  |  |  |  |  |  |  |  |  |  |  | 1.06 | 0.459 | 0.239 | 0.199 |  |  | 0.739
17 | NCI-H1563 | 0.543 | 0.522 | 0.45 | 0.41 |  |  |  |  | 0.414 | 0.451 | 0.476 | 0.418 | 0.497 |  |  |  |  | 0.39 |  | 
18 | NCI-H1623 |  |  |  |  |  |  |  |  | 0.552 | 0.444 | 0.525 | 0.501 | 0.519 |  |  |  |  |  |  | 
19 | NCI-H1648 | 0.582 | 0.344 | 0.325 | 0.42 | 0.23 | 0.249 | 0.279 | 0.258 |  |  |  |  |  |  |  |  |  | 0.321 | 0.227 | 
20 | NCI-H1703 |  |  |  |  |  |  |  |  |  |  |  |  |  | 0.293 | 0.143 | 0.132 | 0.0869 |  |  | 0.207
21 | NCI-H2342 | 0.773 | 0.433 | 0.315 | 0.319 | 0.507 | 0.488 | 0.433 | 0.344 | 0.276 | 0.339 | 0.287 | 0.303 | 0.319 |  |  |  |  | 0.746 | 0.51 | 
22 | SW 900 | 0.404 | 0.296 | 0.161 | 0.115 | 0.376 | 0.278 | 0.201 | 0.18 |  | 0.582 |  | 0.524 | 0.623 |  |  |  |  | 0.356 | 0.359 | 
